From US7833331B2, “Non-toxic corrosion-protection pigments based on cobalt” (University of Dayton, priority 2007, dated 2010)
“And” between values parts separate entries of the source, which are not always exact repeats. Identical values can stand only once. “Also recorded” adds a separate entry of the source. Like-named read-outs stand apart in the source and are kept apart here.

Assays:
[1] = Accelerated corrosion testing (both ASTM B-117 and G-85.5) of PVB wash primers, overall observation
Procedure: The corrosion inhibiting performance of CoIII pigments was evaluated by incorporating them into primer paint formulations. […] The wash primer is composed of a resin, an acid, a corrosion inhibiting pigment, powdered talc, and carbon lampblack. The acid content of this wash primer provides a rigorous initial test of the stability and performance of the pigments. Other, more benign, polymer-based binder and resin systems might not separate the compounds based on their performance as effectively or as rapidly.
PVB was used exclusively throughout testing to avoid preparation and compositional complications during analysis of pigment performance. However, the invention is not limited to the use of PVB.
A small amount (0.2 g) of powdered talc (magnesium silicate) “filler” was added. Lampblack was not added to these samples. These components were mixed thoroughly by hand and 3.8 g of phosphoric acid diluent added with further mixing. This rough processing allowed direct comparisons of pigment performance to be made without complications due to powder treatments, modifications, and additives.
This is not the conventional paint application procedure for aluminum alloys. Under normal service conditions, aluminum alloys are first subjected to a hexavalent chromium-containing conversion coating prior to primer application. However, the conversion coating was omitted so that the performance of the pigment alone could be evaluated and not the synergistic effects of hexavalent chromium (in the conversion coating) or even of barrier films (in the phosphate or anodized coatings).
This accelerated corrosion test exposes samples to a constant salt-water fog and is a de facto test of solubility for corrosion inhibitors. […] This accelerated corrosion test exposes samples to a cycle of fog of dilute salt and ammonium sulfate at room temperature followed by forced-air drying at an elevated temperature.
Chromate pigments were precipitated from aqueous synthesis solutions and incorporated into PVB wash primer formulations so that each primer sample had the same molar quantity of hexavalent chromium. […] After the samples had dried for 24 hours, they were scribed and the edges of each sample taped to eliminate edge effects.
Wash primer coatings containing these pigments were prepared wherein the trivalent cobalt was present in identical molar concentrations from sample to sample. […] Pigments were made with chloride, bromide, sulfate, hexafluorosilicate, phosphate, molybdate, tungstate, and phosphomolybdate anions. Additionally, […] was also used as a pigment for this application.

[2] = ASTM B-117 static salt fog test of PVB wash primer with pigment, rated by ASTM D-1654; conditions: ASTM D-1654 rating; for 2024-T3 B-117 Proc. A / 7075-T6 B-117 Proc. A: failure at scribe; for 2024-T3 B-117 Proc. B / 7075-T6 B-117 Proc. B: failure in unscribed areas
Procedure: (§1) The corrosion inhibiting performance of CoIII pigments was evaluated by incorporating them into primer paint formulations. The acid wash primer paint formulations called out in DoD-P-15328 [Primer (Wash), Pretreatment (Formulation No. 117 for Metals)] were used to test the various pigments. The wash primer is composed of a resin, an acid, a corrosion inhibiting pigment, powdered talc, and carbon lampblack. The acid content of this wash primer provides a rigorous initial test of the stability and performance of the pigments. Other, more benign, polymer-based binder and resin systems might not separate the compounds based on their performance as effectively or as rapidly. The base solution for the wash primer in this specification was prepared by mixing 88.3 grams of isopropanol, 31.3 grams of n-butanol, and 3.8 grams of deionized water with 14 grams of poly(vinyl butyral) resin (PVB) (Monsanto Butvar B-90TM). PVB was used exclusively throughout testing to avoid preparation and compositional complications during analysis of pigment performance. However, the invention is not limited to the use of PVB. Acid diluent was prepared by mixing 70 grams of 85% phosphoric acid, 63 grams of deionized water, and 247 grams of isopropanol. Finely-ground pigment powder was measured out and added to 13.74 grams of the base solution for each paint to be tested. A small amount (0.2 g) of powdered talc (magnesium silicate) “filler” was added. Lampblack was not added to these samples. These components were mixed thoroughly by hand and 3.8 g of phosphoric acid diluent added with further mixing. This rough processing allowed direct comparisons of pigment performance to be made without complications due to powder treatments, modifications, and additives. […] This is not the conventional paint application procedure for aluminum alloys. Under normal service conditions, aluminum alloys are first subjected to a hexavalent chromium-containing conversion coating prior to primer application. However, the conversion coating was omitted so that the performance of the pigment alone could be evaluated and not the synergistic effects of hexavalent chromium (in the conversion coating) or even of barrier films (in the phosphate or anodized coatings). Multiple samples of specific pigment compositions were prepared and tested. […] The chromate pigments were prepared identically to those used to test CoIII composition variations. PVB wash primers containing various pigment formulations were evaluated by exposing them to static salt fog (ASTM B-117) and cyclic Prohesiomm (ASTM G-85.5) accelerated corrosion tests. ASTM B-117 is a traditional corrosion “proof” test that has little relation to a real working environment. This accelerated corrosion test exposes samples to a constant salt-water fog and is a de facto test of solubility for corrosion inhibitors. […] This is particularly true of inhibitors and compounds that have not been fully optimized with respect to solubility. ASTM G-85.5 (ProhesionTM) is a cyclic corrosion test that more closely resembles real working environments. This accelerated corrosion test exposes samples to a cycle of fog of dilute salt and ammonium sulfate at room temperature followed by forced-air drying at an elevated temperature. This is a more realistic test of the ability of a compound to inhibit corrosion. Results of these tests can be combined to gain insight into how a particular coating or compound will perform relative to a standard as well as helping identify strengths and weaknesses in the performance of the material. ASTM D-1654 evaluation standard for painted or coated specimens subjected to corrosive environments was used to evaluate the performance of the coatings. After the paint dried for 24 hours, each plate was scribed with an X and the plate edges were sealed with PVC tape to eliminate corrosion edge effects. Two visual observations are associated with this rating test. […]

[3] = ASTM G-85.5 cyclic Prohesion test of PVB wash primer with pigment, rated by ASTM D-1654; conditions: ASTM D-1654 rating; for 2024-T3 G-85 Proc. A / 7075-T6 G-85 Proc. A: failure at scribe; for 2024-T3 G-85 Proc. B / 7075-T6 G-85 Proc. B: failure in unscribed areas
Procedure: as §1

[4] = 135 hours of both ASTM B-117 and G-85.5, identical molar concentrations of trivalent cobalt, 2024-T3 and 7075-T6
[5] = 144 hours, inhibitor conc. 1.49 × 10^−3 M (20% of Cr)
[6] = 139 hours, inhibitor conc. 7.44 × 10^−4 M (10% of Cr)
[7] = 117 hours, inhibitor conc. 1.49 × 10^−3 M (20% of Cr)
[8] = 139 hours, inhibitor conc. 1.49 × 10^−3 M (20% of Cr)
[9] = 139 hours, inhibitor conc. 3.72 × 10^−3 M (50% of Cr)

[O]=[Co][O][Co]=[O] [CO2O3, Co2O3, reference compound]
corrosion resistance of trivalent cobalt pigments in PVB wash primer [1, 4]: no discernable corrosion resistance at all

N.N.N.N.N.N.[Cl-].[Cl-].[Cl-].[Co+3] [hexaaminecobalt(III) chloride]
corrosion resistance of trivalent cobalt pigments in PVB wash primer [1]: performed very well in the early stages of the test and then failed as the test progressed

F[Si-2](F)(F)(F)(F)F.F[Si-2](F)(F)(F)(F)F.F[Si-2](F)(F)(F)(F)F.N.N.N.N.N.N.N.N.N.N.N.N.[Co+3].[Co+3] [hexaaminecobalt(III) hexafluorosilicate]
corrosion resistance of trivalent cobalt pigments in PVB wash primer [1, 4]: performed the best of all

N.N.N.N.N.N.N.N.N.N.N.N.[Co+3].[Co+3].[O]=[Mo](=[O])([O-])[O-].[O]=[Mo](=[O])([O-])[O-].[O]=[Mo](=[O])([O-])[O-] [hexaaminecobalt(III) molybdate]
corrosion resistance of trivalent cobalt pigments in PVB wash primer [1]: a small amount of corrosion resistance; also recorded: performed the best of these three pigment compounds

N.N.N.N.N.N.N.N.N.N.N.N.[Co+3].[Co+3].[O]=[W](=[O])([O-])[O-].[O]=[W](=[O])([O-])[O-].[O]=[W](=[O])([O-])[O-] [hexaaminecobalt(III) tungstate]
corrosion resistance of trivalent cobalt pigments in PVB wash primer [1]: a small amount of corrosion resistance

barium 10-molybdocobaltate
2024-T3 B-117 Proc. A [2, 5]: 7
7075-T6 B-117 Proc. A [2, 5]: 6
2024-T3 B-117 Proc. B [2, 5]: 6
7075-T6 B-117 Proc. B [2, 5]: 5
2024-T3 G-85 Proc. A [3, 5]: 7
7075-T6 G-85 Proc. A [3, 5]: 7
2024-T3 G-85 Proc. B [3, 5]: 7
7075-T6 G-85 Proc. B [3, 5]: 7

barium 11-tungstophosphocobaltate
2024-T3 B-117 Proc. A [2, 6]: 7
7075-T6 B-117 Proc. A [2, 6]: 7
2024-T3 B-117 Proc. B [2, 6]: 6
7075-T6 B-117 Proc. B [2, 6]: 6
2024-T3 G-85 Proc. A [3, 6]: 7
7075-T6 G-85 Proc. A [3, 6]: 7
2024-T3 G-85 Proc. B [3, 6]: 7 and 6
7075-T6 G-85 Proc. B [3, 6]: 6

calcium 6-molybdocobaltate
2024-T3 B-117 Proc. A [2, 7]: 7 and 6
7075-T6 B-117 Proc. A [2, 7]: 7
2024-T3 B-117 Proc. B [2, 7]: 5 and 6
7075-T6 B-117 Proc. B [2, 7]: 6
2024-T3 G-85 Proc. A [3, 7]: 8
7075-T6 G-85 Proc. A [3, 7]: 8
2024-T3 G-85 Proc. B [3, 7]: 7
7075-T6 G-85 Proc. B [3, 7]: 8

calcium 10-molybdocobaltate
2024-T3 B-117 Proc. A [2, 5]: 7
7075-T6 B-117 Proc. A [2, 5]: 7 and 6
2024-T3 B-117 Proc. B [2, 5]: 6
7075-T6 B-117 Proc. B [2, 5]: 6
2024-T3 G-85 Proc. A [3, 5]: 9
7075-T6 G-85 Proc. A [3, 5]: 8 and 9
2024-T3 G-85 Proc. B [3, 5]: 8
7075-T6 G-85 Proc. B [3, 5]: 7 and 8

calcium 10-vanadatocobaltate
2024-T3 B-117 Proc. A [2, 8]: 8
7075-T6 B-117 Proc. A [2, 8]: 7
2024-T3 B-117 Proc. B [2, 8]: 7
7075-T6 B-117 Proc. B [2, 8]: 6
2024-T3 G-85 Proc. A [3, 8]: 7 and 8
7075-T6 G-85 Proc. A [3, 8]: 7
2024-T3 G-85 Proc. B [3, 8]: 6
7075-T6 G-85 Proc. B [3, 8]: 6

hexaaminecobalt(III) phosphomolybdate
corrosion resistance of trivalent cobalt pigments in PVB wash primer [1, 4]: a small amount of corrosion resistance; also recorded: performed the worst

magnesium 10-molybdocobaltate
2024-T3 B-117 Proc. A [2, 5]: 7
7075-T6 B-117 Proc. A [2, 5]: 7
2024-T3 B-117 Proc. B [2, 5]: 6
7075-T6 B-117 Proc. B [2, 5]: 6
2024-T3 G-85 Proc. A [3, 5]: 9 and 8
7075-T6 G-85 Proc. A [3, 5]: 9
2024-T3 G-85 Proc. B [3, 5]: 8 and 7
7075-T6 G-85 Proc. B [3, 5]: 7 and 8

magnesium 10-vanadatocobaltate
2024-T3 B-117 Proc. A [2, 8]: 7 and 6
7075-T6 B-117 Proc. A [2, 8]: 7
2024-T3 B-117 Proc. B [2, 8]: 7
7075-T6 B-117 Proc. B [2, 8]: 7
2024-T3 G-85 Proc. A [3, 8]: 8 and 9
7075-T6 G-85 Proc. A [3, 8]: 8 and 9
2024-T3 G-85 Proc. B [3, 8]: 7 and 8
7075-T6 G-85 Proc. B [3, 8]: 7 and 8

magnesium periodatocobaltate
2024-T3 B-117 Proc. A [2, 9]: 7
7075-T6 B-117 Proc. A [2, 9]: 7
2024-T3 B-117 Proc. B [2, 9]: 6
7075-T6 B-117 Proc. B [2, 9]: 6
2024-T3 G-85 Proc. A [3, 9]: 7 and 8
7075-T6 G-85 Proc. A [3, 9]: 7
2024-T3 G-85 Proc. B [3, 9]: 7 and 8
7075-T6 G-85 Proc. B [3, 9]: 7

sodium 10-vanadatocobaltate
2024-T3 B-117 Proc. A [2, 8]: 9
7075-T6 B-117 Proc. A [2, 8]: 6
2024-T3 B-117 Proc. B [2, 8]: 8
7075-T6 B-117 Proc. B [2, 8]: 7
2024-T3 G-85 Proc. A [3, 8]: 8
7075-T6 G-85 Proc. A [3, 8]: 7
2024-T3 G-85 Proc. B [3, 8]: 7
7075-T6 G-85 Proc. B [3, 8]: 6

strontium 10-molybdocobaltate
2024-T3 B-117 Proc. A [2, 5]: 6 and 7
7075-T6 B-117 Proc. A [2, 5]: 7 and 6
2024-T3 B-117 Proc. B [2, 5]: 5
7075-T6 B-117 Proc. B [2, 5]: 6 and 5
2024-T3 G-85 Proc. A [3, 5]: 7
7075-T6 G-85 Proc. A [3, 5]: 7
2024-T3 G-85 Proc. B [3, 5]: 6
7075-T6 G-85 Proc. B [3, 5]: 6

strontium 10-vanadatocobaltate
2024-T3 B-117 Proc. A [2, 8]: 7
7075-T6 B-117 Proc. A [2, 8]: 6
2024-T3 B-117 Proc. B [2, 8]: 6
7075-T6 B-117 Proc. B [2, 8]: 5
2024-T3 G-85 Proc. A [3, 8]: 7
7075-T6 G-85 Proc. A [3, 8]: 6
2024-T3 G-85 Proc. B [3, 8]: 6
7075-T6 G-85 Proc. B [3, 8]: 5

zinc 10-molybdocobaltate
2024-T3 B-117 Proc. A [2, 5]: 7
7075-T6 B-117 Proc. A [2, 5]: 7
2024-T3 B-117 Proc. B [2, 5]: 7
7075-T6 B-117 Proc. B [2, 5]: 7 and 5
2024-T3 G-85 Proc. A [3, 5]: 6 and 7
7075-T6 G-85 Proc. A [3, 5]: 7
2024-T3 G-85 Proc. B [3, 5]: 7 and 6
7075-T6 G-85 Proc. B [3, 5]: 6

zinc 10-vanadatocobaltate
2024-T3 B-117 Proc. A [2, 8]: 9
7075-T6 B-117 Proc. A [2, 8]: 8 and 9
2024-T3 B-117 Proc. B [2, 8]: 9 and 8
7075-T6 B-117 Proc. B [2, 8]: 8 and 9
2024-T3 G-85 Proc. A [3, 8]: 7
7075-T6 G-85 Proc. A [3, 8]: 7
2024-T3 G-85 Proc. B [3, 8]: 6
7075-T6 G-85 Proc. B [3, 8]: 6
